Starred links: 1 amine or outer side, 2 acyl side, 3 side chain; linkers in the order of their positions; H or OH if unused. Non-standard residues stand in square brackets, D forms with d. Residues, ends and D or L forms follow the SMILES beside them. Ahppa(3S,4S) = O=C(C[C@H](O)[C@H](Cc1ccccc1)N[*:1])[*:2]; dNMeF = CN[C@H](Cc1ccccc1)C(=O)O; NMeQ = CN[C@@H](CCC(N)=O)C(=O)O; Lac = C[C@H](O)C(=O)O
What was measured:
Homo sapiens [1] = species on record: Homo sapiens; assay: Selectivity ratio of IC50 for BACE1 (unknown origin) to IC50 for human recombinant cathepsin E
Homo sapiens [2] = species on record: Homo sapiens; assay: Selectivity ratio of IC50 for human liver cathepsin D to IC50 for human recombinant cathepsin E
Cathepsin E = target: T1, Cathepsin E (Homo sapiens, UniProt P14091); assay: Inhibition of human recombinant cathepsin E using Mca-Gly-Lys-Pro-Ile-Leu-Phe-Phe-Arg-Leu-Lys-(Dnp)-D-Arg-NH2 as substrate preincubated for 15 mins followed by substrate addition measured every 5 mins for 120 mins by fluorescence analysis
T1 sequence (P14091 whole entry): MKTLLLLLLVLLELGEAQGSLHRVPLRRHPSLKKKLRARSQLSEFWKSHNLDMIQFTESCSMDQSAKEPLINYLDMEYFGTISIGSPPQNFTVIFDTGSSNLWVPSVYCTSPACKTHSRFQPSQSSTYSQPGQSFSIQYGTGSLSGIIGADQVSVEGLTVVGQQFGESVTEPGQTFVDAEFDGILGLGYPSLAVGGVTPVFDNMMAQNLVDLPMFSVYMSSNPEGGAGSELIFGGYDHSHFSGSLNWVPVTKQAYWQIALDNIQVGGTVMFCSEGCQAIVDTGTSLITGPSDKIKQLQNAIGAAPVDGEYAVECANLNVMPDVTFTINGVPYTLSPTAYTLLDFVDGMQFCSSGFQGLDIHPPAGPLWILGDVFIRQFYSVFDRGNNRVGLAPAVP

Homo sapiens [3] = species on record: Homo sapiens; assay: Selectivity ratio of IC50 for BACE1 (unknown origin) to IC50 for human liver cathepsin D
Cathepsin D = Cathepsin D (Homo sapiens, UniProt P07339); assay: Inhibition of human liver cathepsin D using Mca-Gly-Lys-Pro-Ile-Leu-Phe-Phe-Arg-Leu-Lys-(Dnp)-D-Arg-NH2 as substrate preincubated for 15 mins followed by substrate addition measured every 5 mins for 120 mins by fluorescence analysis
Cathepsin D, sequence (P07339 65-162 limits assumed): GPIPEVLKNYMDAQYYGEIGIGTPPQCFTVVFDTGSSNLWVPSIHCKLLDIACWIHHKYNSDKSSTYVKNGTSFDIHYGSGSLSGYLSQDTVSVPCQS
Cathepsin D, sequence (P07339 169-412 limits assumed): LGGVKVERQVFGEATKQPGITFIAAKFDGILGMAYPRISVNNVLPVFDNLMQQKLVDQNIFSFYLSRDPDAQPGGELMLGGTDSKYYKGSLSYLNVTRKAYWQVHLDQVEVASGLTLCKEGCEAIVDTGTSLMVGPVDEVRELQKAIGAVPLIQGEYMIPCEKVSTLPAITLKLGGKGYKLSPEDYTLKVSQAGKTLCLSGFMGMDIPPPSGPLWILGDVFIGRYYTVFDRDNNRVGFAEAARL

Beta-secretase 1 = Beta-secretase 1 (Homo sapiens, UniProt P56817); assay: Inhibition of BACE1 (unknown origin) using peptide substrate by time-course measurement-based fluorescence analysis
Beta-secretase 1, sequence (P56817 whole entry): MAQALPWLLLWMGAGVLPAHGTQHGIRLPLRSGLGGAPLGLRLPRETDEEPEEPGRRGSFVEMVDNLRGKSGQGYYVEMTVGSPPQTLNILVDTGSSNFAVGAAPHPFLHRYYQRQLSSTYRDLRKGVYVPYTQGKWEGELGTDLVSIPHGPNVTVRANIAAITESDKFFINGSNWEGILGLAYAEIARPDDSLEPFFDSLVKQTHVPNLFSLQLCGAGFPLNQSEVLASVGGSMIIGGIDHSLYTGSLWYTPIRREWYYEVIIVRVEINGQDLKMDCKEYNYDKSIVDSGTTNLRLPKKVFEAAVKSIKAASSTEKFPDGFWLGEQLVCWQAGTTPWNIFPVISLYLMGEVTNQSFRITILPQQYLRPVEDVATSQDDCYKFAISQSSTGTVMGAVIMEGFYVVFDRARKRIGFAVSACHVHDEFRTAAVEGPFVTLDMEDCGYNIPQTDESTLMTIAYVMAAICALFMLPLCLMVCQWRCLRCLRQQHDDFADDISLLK

Ratio IC50 (Homo sapiens [1]): 30
Ratio IC50 (Homo sapiens [2]): 2.4
IC50 (Cathepsin E): 23 nM
Ratio IC50 (Homo sapiens [3]): 12
IC50 (Cathepsin D): 57 nM
IC50 (Beta-secretase 1): 690 nM
Structure (SMILES): CC[C@H](C)[C@H](NC(=O)C[C@H](O)[C@H](Cc1ccccc1)NC(=O)[C@H](CCC(N)=O)N(C)C(=O)[C@@H](NC(=O)[C@H](C)O)[C@@H](C)CC)C(=O)NCC(=O)N(C)[C@H](Cc1ccccc1)C(=O)N1CCC[C@H]1C(=O)OC (H-[Lac]I[NMeQ][Ahppa(3S,4S)]IG[dNMeF]P-OMe)

— ChEMBL document CHEMBL3813591, “Tasiamide F, a potent inhibitor of cathepsins D and E from a marine cyanobacterium” (Bioorg Med Chem, 2016)
